From patent US20060025390A1, “Treatment of hormone allergy and related symptoms and disorders” (priority 2004, published 2006)

What was measured:
[1] = tested on: serum IgE anti-estrogen antibodies; test: ELISA binding of IgE estrogen antibodies to different hormones in solid phase; parameters: species or system human; details: for IgE binding (optical density): hormone in solid phase, 405 nm; for IgE % reaction: relative to estrogen = 100
Procedure: (§1) The ELISA inhibition method was used to determine specificity and cross-reactivity between different hormones and to ensure the degree of human IgG, IgM and IgE estrogen or progesterone binding to estrogen or progesterone in solid phase. […] 100 μl of sera from three different patients with high IgG, IgM or IgE antibodies against 17-α-hydroxyprogesterone was added to all wells. After shaking and incubation for 1 hr at room temperature, addition of enzyme labeled anti-human IgG, IgM or IgE, repeat of incubation, washing, and addition of substrate, color development was measured at 405 nm. Results were calculated as percentage of anti-17-α-hydroxyprogesterone binding to 17-α-hydroxyprogesterone and other hormones. Also, anti-estrogen binding to estrogen and other hormones in solid phase by progesterone in liquid phase was performed and calculated in a similar manner.
(§2) Human sera containing 17-α-hydroxyprogesterone IgG-, IgM- and IgE-binding antibodies were reacted against progesterone, estrogen, hydrocortisone and cholesterol. In comparison to 100% binding of anti-17-α-hydroxyprogesterone-binding to 17-α-hydroxyprogesterone, the IgG anti-17-α-hydroxyprogesterone-binding to progesterone, estrogen, hydrocortisone and cholesterol was 69-77%, 25-30%, 39-53%, and less than 10% respectively (Table 4). The % binding of serum IgM and IgE anti-17-α-hydroxyprogesterone to 17-1-hydroxyprogesterone, progesterone, estrogen, hydrocortisone and cholesterol was similar to the binding of IgG. This binding of anti-17-α-hydroxyprogesterone to progesterone was the highest, followed by hydrocortisone, then estrogen, to almost no binding with cholesterol. Similar to this, human sera with IgG, IgM and IgE binding antibodies against estrogen were reacted with progesterone, 17-α-hydroxyprogesterone, hydrocortisone and cholesterol, in the presence of estrogen.

[2] = tested on: serum IgG anti-estrogen antibodies; test: ELISA binding of IgG estrogen antibodies to different hormones in solid phase; parameters: species or system human; details: for IgG binding (optical density): hormone in solid phase, 405 nm; for IgG % reaction: relative to estrogen = 100
Procedure: as §1, §2

[3] = tested on: serum IgG anti-17-α-hydroxyprogesterone antibodies; test: ELISA binding of IgG 17-α-hydroxyprogesterone antibodies to different hormones in solid phase; parameters: species or system human; details: for IgG binding (optical density): hormone in solid phase, 405 nm; for IgG % reaction: relative to 17-α-hydroxyprogesterone = 100
Procedure: as §1, §2

[4] = tested on: serum IgM anti-estrogen antibodies; test: ELISA binding of IgM estrogen antibodies to different hormones in solid phase; parameters: species or system human; details: for IgM binding (optical density): hormone in solid phase, 405 nm; for IgM % reaction: relative to estrogen = 100
Procedure: as §1, §2

women with acute asthma = test: Symptom relief in women with acute asthma after intradermal progesterone (0 to 10 scale); type: in vivo, human
Procedure: To test this hypothesis, 142 women with acute asthma were asked to evaluate the severity of their symptoms using an eleven point scale. Ten was assigned to the most severe symptoms, while 0 was assigned to an absence of symptoms. Immediately after assessing their symptoms on this scale, patents were administered 0.5 mg of progesterone by intradermal injection.
Approximately 15 to 30 seconds after the injection was administered, each patient was asked if their symptoms were worse, better, or unchanged. Each patient was also asked to rate their present symptoms on the same 0 to 10 scale.
Of the 142 patients tested 129 (91%) positively responded to the treatment. Using the random effects calculations described in Example 2, this correlates to a less than 0.1% chance that the results are random. Thus the results may be considered highly significant.
Hormone samples may be prepared in any way suitable for the intended administration route. For administration through intradermal injection, samples may be prepared as they were in the studies of Examples 2 and 3. Specifically, the progesterone was formulated from commercially available injectable progesterone. Each ml of the final formulation contained […] of progesterone and 10% benzyl alcohol as a preservative in sesame oil. 0.1 ml was administered per patient intradermally. Estrogen samples were similarly prepared.

[5] = 0.5 mg intradermal, acute asthma
[6] = of 142 women with acute asthma, 0.5 mg intradermal, 15 to 30 seconds after injection

IgE binding (optical density) ([1]; sample 1): 0.21 | IgE % reaction ([1]; sample 1): −26% | IgE binding (optical density) ([1]; sample 2): 0.53 | IgE % reaction ([1]; sample 2): −35% | IgE binding (optical density) ([1]; sample 3): 0.62 | IgE % reaction ([1]; sample 3): −39% | IgG binding (optical density) ([2]; sample 1): 0.35 | IgG % reaction ([2]; sample 1): −29% | IgG binding (optical density) ([2]; sample 2): 0.48 | IgG % reaction ([2]; sample 2): −27% | IgG binding (optical density) ([2]; sample 3): 0.32 | IgG % reaction ([2]; sample 3): −35% | IgG anti-17-α-hydroxyprogesterone binding ([3]; in comparison to 100% binding to 17-α-hydroxyprogesterone, over three sera): 69-77% | IgG binding (optical density) ([3]; sample 1): 1.1 | IgG % reaction ([3]; sample 1): −69% | IgG binding (optical density) ([3]; sample 2): 0.73 | IgG % reaction ([3]; sample 2): −77% | IgG binding (optical density) ([3]; sample 3): 0.49 | IgG % reaction ([3]; sample 3): −72% | IgM binding (optical density) ([4]; sample 1): 0.26 | IgM % reaction ([4]; sample 1): −29% | IgM binding (optical density) ([4]; sample 2): 0.65 | IgM % reaction ([4]; sample 2): −31% | IgM binding (optical density) ([4]; sample 3): 0.44 | IgM % reaction ([4]; sample 3): −34%
Compound: CC(=O)[C@H]1CC[C@H]2[C@@H]3CCC4=CC(=O)CC[C@]4(C)[C@H]3CC[C@]12C [Progesterone, progesterone]
average symptomatic relief, patients who reported some response (women with acute asthma; 0 to 10 scale): 5 points | average symptomatic relief, all patients (women with acute asthma; 0 to 10 scale, responding and not responding patients): 3.4 points | average reduction in symptoms relative to maximum individual patient score (women with acute asthma; [5]): 62% | patients reporting 100% relief of asthma symptoms (%) (women with acute asthma; [5]): 28% | patients reporting 100% relief of asthma symptoms (number) (women with acute asthma; [5]): 40 | patients who positively responded to the treatment (%) (women with acute asthma; [6]): 91% | patients who positively responded to the treatment (number) (women with acute asthma; [6]): 129
